Assays:
HeLa = assay: Antiproliferative activity against human HeLa cells by MTT assay; type: functional, cell-based
COLO 205 = assay: Antiproliferative activity against human COLO205 cells by MTT assay; type: functional, cell-based
HepG2 = assay: Antiproliferative activity against human HepG2 cells by MTT assay; type: functional, cell-based
HEK293 = assay: Antiproliferative activity against human HEK293 cells by MTT assay; type: cell-based
MCF7 = assay: Antiproliferative activity against human MCF7 cells by MTT assay; type: functional, cell-based

Structure (SMILES) | IC50 (HeLa; read-out: IC50) | IC50 (COLO 205; read-out: IC50) | IC50 (COLO 205; read-out: pIC50 (converted)) | IC50 (HepG2) | IC50 (MCF7; read-out: IC50) | IC50 (MCF7; read-out: pIC50 (converted)) | IC50 (HeLa; read-out: pIC50 (converted)) | IC50 (HEK293)
O=c1c2oc3nc(-c4cccs4)cc(C(F)(F)F)c3c2ncn1C1CCCC1 | 50.2 µM | 42.5 µM | 42.7 µM | 49.8 µM | 62.7 µM | 63.1 µM |  | > 220 µg/mL
O=c1c2oc3nc(-c4cccs4)cc(C(F)(F)F)c3c2ncn1/N=C/c1ccc(Br)cc1 | > 220 µg/mL | > 220 µg/mL |  | > 220 µg/mL | > 220 µg/mL |  |  | > 220 µg/mL
O=c1c2oc3nc(-c4ccccc4)cc(C(F)(F)F)c3c2ncn1C1CCCC1 | > 220 µg/mL | > 220 µg/mL |  | > 220 µg/mL | > 220 µg/mL |  |  | > 220 µg/mL
CCCn1c(C)nc2c(oc3nc(-c4cccs4)cc(C(F)(F)F)c32)c1=O | 28.5 µM | 18.9 µM | 19.1 µM | 22.8 µM | 31.5 µM | 31.6 µM | 28.8 µM | 68 µM
CCn1c(C)nc2c(oc3nc(-c4cccs4)cc(C(F)(F)F)c32)c1=O | > 220 µg/mL | > 220 µg/mL |  | > 220 µg/mL | > 220 µg/mL |  |  | > 220 µg/mL
Nc1c(C(=O)N/N=C/c2ccc(Br)cc2)oc2nc(-c3cccs3)cc(C(F)(F)F)c12 | 6.4 µM | 5.9 µM | 5.89 µM | 6.1 µM | 5.2 µM | 5.25 µM | 6.46 µM | 86 µM
O=c1c2oc3nc(-c4ccccc4)cc(C(F)(F)F)c3c2ncn1/N=C/c1ccc(Cl)cc1 | > 220 µg/mL | 43.6 µM | 43.7 µM | > 220 µg/mL | 56.8 µM | 57.5 µM |  | > 220 µg/mL
Cn1cnc2c(oc3nc(-c4cccs4)cc(C(F)(F)F)c32)c1=O | > 220 µg/mL | > 220 µg/mL |  | > 220 µg/mL | > 220 µg/mL |  | 50.1 µM | > 220 µg/mL
Cc1nc2c(oc3nc(-c4ccccc4)cc(C(F)(F)F)c32)c(=O)n1C1CCCC1 | 18.2 µM | 18.7 µM | 18.6 µM | 17.1 µM | 22.8 µM | 22.9 µM | 18.2 µM | 96 µM

Continued, in another order:

IC50 (HeLa; read-out: IC50) | IC50 (COLO 205; read-out: IC50) | IC50 (COLO 205; read-out: pIC50 (converted)) | IC50 (HepG2) | IC50 (MCF7; read-out: IC50) | IC50 (MCF7; read-out: pIC50 (converted)) | IC50 (HeLa; read-out: pIC50 (converted)) | Structure (SMILES) | IC50 (HEK293)
11.8 µM | 9.1 µM | 9.12 µM | 8.9 µM | 10.2 µM | 10.2 µM | 11.7 µM | Cc1ccc(/C=N/NC(=O)c2oc3nc(-c4ccccc4)cc(C(F)(F)F)c3c2N)cc1 | 69 µM
18.9 µM | 15.3 µM | 15.5 µM | 17.2 µM | 20.4 µM | 20.4 µM | 19.1 µM | CCCNC(=O)c1oc2nc(-c3cccs3)cc(C(F)(F)F)c2c1N | 64 µM
> 220 µg/mL | > 220 µg/mL |  | > 220 µg/mL | 117 µM | 117 µM |  | CCCn1c(C)nc2c(oc3nc(-c4ccccc4)cc(C(F)(F)F)c32)c1=O | 52 µM
> 220 µg/mL | > 220 µg/mL | 9.77 µM | 221 µM | > 220 µg/mL |  |  | Cn1cnc2c(oc3nc(-c4ccccc4)cc(C(F)(F)F)c32)c1=O | > 220 µg/mL
23.9 µM | 21.2 µM | 21.4 µM | 19.9 µM | 18.7 µM | 18.6 µM | 24 µM | Nc1c(C(=O)N/N=C/c2ccc(Br)cc2)oc2nc(-c3ccccc3)cc(C(F)(F)F)c12 | 64 µM
36.1 µM | 38.9 µM | 38.9 µM | 37.4 µM | 35.6 µM | 35.5 µM | 36.3 µM | CCCNC(=O)c1oc2nc(-c3ccccc3)cc(C(F)(F)F)c2c1N | 81 µM
4.1 µM | 11.1 µM | 11.2 µM | 12.1 µM | 11.9 µM | 12 µM | 4.07 µM | Nc1c(C(=O)N/N=C/c2ccc(Cl)cc2)oc2nc(-c3ccccc3)cc(C(F)(F)F)c12 | 81 µM
40.2 µM | 36.8 µM | 37.2 µM | 41.2 µM | 37.4 µM | 37.2 µM | 45.7 µM | CNC(=O)c1oc2nc(-c3ccccc3)cc(C(F)(F)F)c2c1N | 62 µM
14.2 µM | 18.7 µM | 18.6 µM | 12.1 µM | 21.8 µM | 21.9 µM | 14.1 µM | CCNC(=O)c1oc2nc(-c3cccs3)cc(C(F)(F)F)c2c1N | 62 µM
> 220 µg/mL | > 220 µg/mL |  | > 220 µg/mL | 85.5 µM | 85.1 µM |  | CCCn1cnc2c(oc3nc(-c4ccccc4)cc(C(F)(F)F)c32)c1=O | 90 µM
> 220 µg/mL | > 220 µg/mL |  | > 220 µg/mL | > 220 µg/mL |  |  | CCn1c(C)nc2c(oc3nc(-c4ccccc4)cc(C(F)(F)F)c32)c1=O | > 220 µg/mL
